Experimental data taken from paper PMC9428149, “Tackling recalcitrant Pseudomonas aeruginosa infections in critical illness via anti-virulence monotherapy” (Nature Communications, 2022).
Where “and” joins values, the source holds several entries; their conditions need not be identical. Equal entries are not always repeated.

System: claudin-1
Experiment: Tight junction claudin-1 immunofluorescence, distal ileum;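 as to Claudin-1 immunofluorescence quantification (Supplimentary Figure 9): fluorescence intensity in arbitrary units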
Type: in vivo, mouse
Protocol: For the group supplemented with our MvfR-inhibiting compound (D88), mice received five subcutaneous injections (at the nape of the animals) at 1, 4, 8, 12, and 18 h post-BI, at a dose of 24 mg kg^−1 body weight. D88 was prepared in a 40% Captisol vehicle. Control groups received equivalent doses of 40% Captisol vehicle.
Samples of distal ileum fixed with 4% paraformaldehyde were cut in sections and mounted on microscope slides. After deparaffinization and antigen retrieval (Antigen Retrieval reagent; R&D Systems, Minneapolis, MN, USA), tissue sections were immersed in PBS/0.1 tween for 10 min and were blocked by Normal Goat Serum. They were then incubated with primary antibody rabbit polyclonal anti-claudin-1 (Catalog# 71-7800; final concentration, 1:100; Invitrogen, Rockford, IL, USA) overnight in a humid chamber at 4 °C. The sections were washed three times with PBS and secondary antibody goat anti-rabbit (Catalog# ab150061; final concentration: 1:500; Abcam, Cambridge, MA, USA) and DAPI (Catalog# ab228549; Abcam, Cambridge, MA, USA) were added, and incubated 1 h at room temperature. The sections were then washed three times with PBS, dried, and mounted, and images were collected using a confocal microscope (Nikon ECLIPSE Ti2; NIS-Elements AR 5.21.03; Nikon Instruments Inc., Tokyo, Japan).

N#Cc1ccc(NC(=O)C(F)C(=O)Nc2ccc(Oc3ccccc3)cc2)cc1 (centres unmarked) [D88]
Claudin-1 immunofluorescence quantification (Supplimentary Figure 9) (PA14+D88 group, compare Sham, PA14+Vehicle, ΔmvfR, individual measurements): 148.508 and 162.001 and 157.541 and 137.39 and 152.028 and 182.597 and 148.327 and 116.923 and 109.707 and 109.463
claudin-1 staining fluorescence intensity (ileum, PA14 infected + D88, 22 h): 142.48 AUs
